Key:
human MCT2 = molecular target: T1, human MCT2 (Homo sapiens, UniProt O60669); experiment: MCT filter binding assay, yeast membranes, radioligand specific binding; details: ~2.5 nM radioligand
T1 construct: The full length open reading frame for human MCT2 was then subcloned into the S. cerevisiae expression plasmid, pACES14; made in house; host or cells: Saccharomyces cerevisiae BY4742 (jen1 deletion), membrane preparation; plasmid pACES14-hMCT2
T1 sequence (O60669 1-478): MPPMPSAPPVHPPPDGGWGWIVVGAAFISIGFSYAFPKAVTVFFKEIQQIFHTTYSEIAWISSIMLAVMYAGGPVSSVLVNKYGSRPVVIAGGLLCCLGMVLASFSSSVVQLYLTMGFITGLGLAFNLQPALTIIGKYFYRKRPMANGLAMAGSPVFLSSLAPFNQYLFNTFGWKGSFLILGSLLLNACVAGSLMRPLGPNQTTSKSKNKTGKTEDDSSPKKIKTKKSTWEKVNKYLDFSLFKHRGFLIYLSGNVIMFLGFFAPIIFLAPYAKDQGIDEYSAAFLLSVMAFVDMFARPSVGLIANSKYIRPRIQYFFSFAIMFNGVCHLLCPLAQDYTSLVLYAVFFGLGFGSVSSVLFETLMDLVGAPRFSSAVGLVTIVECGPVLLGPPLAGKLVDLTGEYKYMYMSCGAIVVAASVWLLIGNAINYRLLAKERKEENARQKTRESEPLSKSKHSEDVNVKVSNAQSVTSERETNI
Protocol: (§1) For yeast cells transformed with expression plasmids containing the human MCT 1-4 ORFs the ability of membrane preparations to bind radioligand was determined using a single ligand concentration/multi protein concentration binding assay. This generated an estimate of the amount of active binding protein present in each membrane preparation. The ligand concentration used will give an estimate of Bmax that is approximately 90% of the true value. 10 μl of ligand A, B or C that had been diluted 50 fold with assay buffer (50 mM HEPES, 0.1 mM EDTA, 0.15 M NaCl, pH 7.5, 0.5% BSA) was dispensed into wells of a polypropylene microtitre plate. This gives a final radiolabelled ligand concentration of ˜2.5 nM. […] The membranes were diluted to give a known amount/180 μl assay buffer. This is typically in the […] range. For the membranes with high binding site number a more dilute membrane preparation should be added. 180 μl of each membrane solution was then added to each well and incubated at 2 hours at room temperature with shaking. The membranes were harvested onto GF-B filter plates and washed with assay buffer without BSA, dried, scintillant added and counts detected using the relevant program for each ligand on a Packard Top Count plate reader.

[1] = MCT filter binding assay, yeast membranes transformed with vector only; details: ~2.5 nM radioligand
Protocol: as §1

MCT1 = molecular target: T2, MCT1 (Homo sapiens, UniProt P53985, D490E); experiment: MCT filter binding assay, yeast membranes, radioligand specific binding; design: made in house; host or cells: Saccharomyces cerevisiae BY4742 (jen1 deletion), membrane preparation; plasmid pACES14-hMCT1; details: ~2.5 nM radioligand
T2 sequence (P53985 1-500 D490E): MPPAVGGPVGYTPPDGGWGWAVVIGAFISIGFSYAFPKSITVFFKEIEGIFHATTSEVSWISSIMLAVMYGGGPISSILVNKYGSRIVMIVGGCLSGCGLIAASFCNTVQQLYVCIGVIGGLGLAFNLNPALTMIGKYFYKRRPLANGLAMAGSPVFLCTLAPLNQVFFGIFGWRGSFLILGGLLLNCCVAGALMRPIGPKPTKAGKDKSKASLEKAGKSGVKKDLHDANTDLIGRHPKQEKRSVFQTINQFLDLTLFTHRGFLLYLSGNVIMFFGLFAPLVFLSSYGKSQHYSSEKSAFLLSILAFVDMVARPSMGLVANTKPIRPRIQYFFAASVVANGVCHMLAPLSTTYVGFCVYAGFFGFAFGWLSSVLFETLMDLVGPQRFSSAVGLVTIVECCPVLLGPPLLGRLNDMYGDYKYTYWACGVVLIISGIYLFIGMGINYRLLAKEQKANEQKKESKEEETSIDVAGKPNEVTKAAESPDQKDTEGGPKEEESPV
Protocol: as §1

Jurkat T-cell membranes = format: binding, human
Protocol: Cells were harvested by centrifugation at 1500 g for 10 minutes. The cell pellets were washed twice with phosphate buffered saline (PBS) and centrifuged as above. The final cell pellet was resuspended in lysis buffer (50 mM HEPES (pH 7.8), 50 mM KCl, 10% glycerol, 0.1 mM EDTA, 1 mM DTT) and lysed by nitrogen cavitation. Unlysed cells and nuclei were removed by centrifugation at 1500 g for 10 minutes. The supernatant was then centrifuged at 100,000 g for 30 minutes at 4° C., and the pellet resuspended and homogenised in assay buffer (50 mM HEPES (pH 7.5), 1 mM EDTA, 150 mM NaCl). Aliquots of membrane preparation were stored at −80° C. until use.
Frozen Jurkat cell membranes were thawed on ice and then homogenised. Wheatgerm agglutinin-linked Scintillation Proximity Assay beads (Amersham) were rehydrated in assay buffer to a concentration of 100 mg/ml. 2 ml of Jurkat membranes were added per 0.5 ml (50 mg) of SPA beads and incubated overnight with constant agitation to allow the beads to coat with Jurkat membranes. […] 10 μl of test compound and 10 μl of radioligand were incubated with 180 μl of SPA beads and membranes (0.04 mg beads). […] The plates were incubated for 3 hours at room temperature before quantitation of radioactivity proximal to the SPA beads by scintillation counting.

For CC(C)Cc1nn(C)c(=O)c2c(SCCCO)n(Cc3ccccc3[125I])cc12 [Ligand A, 2,6-Dihydro-7-[(3-hydroxypropyl)thio]-6-[(2-[^125I]iodophenyl)methyl]-2-methyl-4-(2-methylpropyl)-1H-pyrrolo[3,4-d]pyridazin-1-one], the “Specific binding (cpm) Average” value (human MCT2; MCT2 (2 ug)) was 7286 cpm, the “Specific binding (cpm) Average” value (human MCT2; MCT2 (20 ug)) was 14769 cpm and the “Specific binding (cpm) Average” value ([1]; vector (2 ug)) was 1735 cpm. For the same molecule, the “Specific binding (cpm) Average” value ([1]; vector (20 ug)) was 0 cpm, the “Specific binding (cpm) Average” value (MCT1; MCT1 (2 ug)) was 88841 cpm and the “Specific binding (cpm) Average” value (MCT1; MCT1 (20 ug)) was 177453 cpm. The “125I-ligand A binding (cpm), Specific binding (Total - Non-specific)” value (Jurkat T-cell membranes) was 1991 cpm, the “125I-ligand A binding (cpm), Total binding” value (Jurkat T-cell membranes; approximately 0.1 nM radioligand, vehicle alone) was 2490 ± 32 cpm and the “125I-ligand A binding (cpm), Non-specific binding” value (Jurkat T-cell membranes; in the presence of 1 μM Ligand 1) was 499 ± 20 cpm.
